Test results as given in ChEMBL document CHEMBL1156221, “A-ring modifications on the triazafluorenone core structure and their mGluR1 antagonist properties” (Bioorg Med Chem Lett, 2010).
pIC50, pKi: −log10 of the molar value.

Key:
[1] = molecular target: Metabotropic glutamate receptor 5 (Homo sapiens, UniProt P41594); assay: Antagonist activity at human mGluR5; format: functional
[2] = molecular target: Metabotropic glutamate receptor 1 (Homo sapiens, UniProt Q13255); assay: Antagonist activity at human mGluR1; format: functional
in vivo = settings: rat, brain/plasma, po, 10 mg/kg
Description: Ratio of drug level in brain to plasma in rat at 10 mg/kg, po

[3] = AUC in rat at 10 mg/kg, po by LC/API-MS/MS; format: ADME, organism-based; design: dose 10 mg/kg, route oral; settings: plasma
[4] = Drug level in rat brain at 10 mg/kg, po after 6 hrs; format: ADME, organism-based; design: dose 10 mg/kg, route oral; settings: read-out: Drug uptake
[5] = molecular target: Metabotropic glutamate receptor 1 (Rattus norvegicus); assay: Antagonist activity at rat mGluR1
[6] = molecular target: Metabotropic glutamate receptor 1 (Rattus norvegicus, UniProt P23385); assay: Antagonist activity at rat mGluR1; format: functional
Chain of Metabotropic glutamate receptor 1 (Rattus norvegicus, UniProt P23385) (P23385 whole entry, looked up): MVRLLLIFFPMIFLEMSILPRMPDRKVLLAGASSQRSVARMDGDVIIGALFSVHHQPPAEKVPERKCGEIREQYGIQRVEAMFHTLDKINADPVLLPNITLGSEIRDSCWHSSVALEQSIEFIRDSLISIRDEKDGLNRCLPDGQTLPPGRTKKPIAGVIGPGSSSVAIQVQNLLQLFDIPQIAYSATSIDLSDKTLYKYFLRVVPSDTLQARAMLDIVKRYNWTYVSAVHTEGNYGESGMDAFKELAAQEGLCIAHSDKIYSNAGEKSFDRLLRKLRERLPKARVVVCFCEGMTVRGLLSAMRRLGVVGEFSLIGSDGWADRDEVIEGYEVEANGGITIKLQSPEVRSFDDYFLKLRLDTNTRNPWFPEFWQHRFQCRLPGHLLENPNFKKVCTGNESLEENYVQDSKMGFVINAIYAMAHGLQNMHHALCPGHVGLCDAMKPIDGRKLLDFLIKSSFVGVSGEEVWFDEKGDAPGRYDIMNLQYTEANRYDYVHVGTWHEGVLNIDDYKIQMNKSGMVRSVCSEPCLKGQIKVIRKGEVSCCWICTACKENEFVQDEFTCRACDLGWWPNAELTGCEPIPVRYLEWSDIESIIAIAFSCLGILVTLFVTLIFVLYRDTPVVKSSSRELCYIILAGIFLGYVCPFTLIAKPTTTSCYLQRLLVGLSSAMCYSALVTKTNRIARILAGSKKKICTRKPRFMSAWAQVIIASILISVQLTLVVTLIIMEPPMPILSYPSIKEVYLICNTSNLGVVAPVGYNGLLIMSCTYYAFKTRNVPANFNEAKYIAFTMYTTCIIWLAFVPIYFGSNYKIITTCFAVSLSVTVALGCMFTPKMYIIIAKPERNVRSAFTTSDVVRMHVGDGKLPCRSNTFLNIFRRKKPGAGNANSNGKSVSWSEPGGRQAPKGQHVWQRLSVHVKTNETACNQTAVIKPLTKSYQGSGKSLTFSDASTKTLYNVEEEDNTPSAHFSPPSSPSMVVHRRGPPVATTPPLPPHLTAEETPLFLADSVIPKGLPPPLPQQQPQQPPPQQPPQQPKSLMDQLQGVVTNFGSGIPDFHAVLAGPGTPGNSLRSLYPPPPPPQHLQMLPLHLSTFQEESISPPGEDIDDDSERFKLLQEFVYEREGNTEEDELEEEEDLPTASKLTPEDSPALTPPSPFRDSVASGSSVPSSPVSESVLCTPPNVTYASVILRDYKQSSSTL

Chain of Metabotropic glutamate receptor 1 (Homo sapiens, UniProt Q13255) (Q13255 whole entry): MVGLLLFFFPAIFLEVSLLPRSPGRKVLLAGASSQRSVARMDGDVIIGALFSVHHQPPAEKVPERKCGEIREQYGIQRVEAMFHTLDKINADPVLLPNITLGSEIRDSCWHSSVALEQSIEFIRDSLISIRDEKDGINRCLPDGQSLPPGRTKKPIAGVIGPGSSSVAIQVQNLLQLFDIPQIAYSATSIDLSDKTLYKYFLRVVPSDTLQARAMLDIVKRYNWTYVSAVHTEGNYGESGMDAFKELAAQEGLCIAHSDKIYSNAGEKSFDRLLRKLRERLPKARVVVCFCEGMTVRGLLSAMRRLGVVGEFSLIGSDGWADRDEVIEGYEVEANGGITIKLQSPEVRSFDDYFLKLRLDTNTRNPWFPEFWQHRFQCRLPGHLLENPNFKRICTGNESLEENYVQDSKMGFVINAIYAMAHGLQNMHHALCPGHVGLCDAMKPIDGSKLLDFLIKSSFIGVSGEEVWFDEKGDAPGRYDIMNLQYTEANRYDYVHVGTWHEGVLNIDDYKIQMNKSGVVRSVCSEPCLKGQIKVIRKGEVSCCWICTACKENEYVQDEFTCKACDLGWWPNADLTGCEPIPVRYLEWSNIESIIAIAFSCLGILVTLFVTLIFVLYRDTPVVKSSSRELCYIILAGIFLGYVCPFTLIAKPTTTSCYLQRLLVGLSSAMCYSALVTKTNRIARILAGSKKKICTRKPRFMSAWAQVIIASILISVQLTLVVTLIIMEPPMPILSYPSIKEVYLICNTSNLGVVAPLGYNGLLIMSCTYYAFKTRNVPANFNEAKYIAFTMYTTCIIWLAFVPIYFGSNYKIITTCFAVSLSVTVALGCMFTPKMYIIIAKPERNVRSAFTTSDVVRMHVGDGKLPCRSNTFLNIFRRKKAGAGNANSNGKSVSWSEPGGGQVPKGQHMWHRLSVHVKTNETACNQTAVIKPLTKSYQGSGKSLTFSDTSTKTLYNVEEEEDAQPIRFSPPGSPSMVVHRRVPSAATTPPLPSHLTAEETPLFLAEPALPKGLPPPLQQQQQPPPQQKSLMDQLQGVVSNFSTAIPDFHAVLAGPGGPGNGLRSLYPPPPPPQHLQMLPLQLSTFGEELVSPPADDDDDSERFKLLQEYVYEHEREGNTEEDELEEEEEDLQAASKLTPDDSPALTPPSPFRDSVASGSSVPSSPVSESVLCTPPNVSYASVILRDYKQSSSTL
Chain of Metabotropic glutamate receptor 5 (P41594 whole entry): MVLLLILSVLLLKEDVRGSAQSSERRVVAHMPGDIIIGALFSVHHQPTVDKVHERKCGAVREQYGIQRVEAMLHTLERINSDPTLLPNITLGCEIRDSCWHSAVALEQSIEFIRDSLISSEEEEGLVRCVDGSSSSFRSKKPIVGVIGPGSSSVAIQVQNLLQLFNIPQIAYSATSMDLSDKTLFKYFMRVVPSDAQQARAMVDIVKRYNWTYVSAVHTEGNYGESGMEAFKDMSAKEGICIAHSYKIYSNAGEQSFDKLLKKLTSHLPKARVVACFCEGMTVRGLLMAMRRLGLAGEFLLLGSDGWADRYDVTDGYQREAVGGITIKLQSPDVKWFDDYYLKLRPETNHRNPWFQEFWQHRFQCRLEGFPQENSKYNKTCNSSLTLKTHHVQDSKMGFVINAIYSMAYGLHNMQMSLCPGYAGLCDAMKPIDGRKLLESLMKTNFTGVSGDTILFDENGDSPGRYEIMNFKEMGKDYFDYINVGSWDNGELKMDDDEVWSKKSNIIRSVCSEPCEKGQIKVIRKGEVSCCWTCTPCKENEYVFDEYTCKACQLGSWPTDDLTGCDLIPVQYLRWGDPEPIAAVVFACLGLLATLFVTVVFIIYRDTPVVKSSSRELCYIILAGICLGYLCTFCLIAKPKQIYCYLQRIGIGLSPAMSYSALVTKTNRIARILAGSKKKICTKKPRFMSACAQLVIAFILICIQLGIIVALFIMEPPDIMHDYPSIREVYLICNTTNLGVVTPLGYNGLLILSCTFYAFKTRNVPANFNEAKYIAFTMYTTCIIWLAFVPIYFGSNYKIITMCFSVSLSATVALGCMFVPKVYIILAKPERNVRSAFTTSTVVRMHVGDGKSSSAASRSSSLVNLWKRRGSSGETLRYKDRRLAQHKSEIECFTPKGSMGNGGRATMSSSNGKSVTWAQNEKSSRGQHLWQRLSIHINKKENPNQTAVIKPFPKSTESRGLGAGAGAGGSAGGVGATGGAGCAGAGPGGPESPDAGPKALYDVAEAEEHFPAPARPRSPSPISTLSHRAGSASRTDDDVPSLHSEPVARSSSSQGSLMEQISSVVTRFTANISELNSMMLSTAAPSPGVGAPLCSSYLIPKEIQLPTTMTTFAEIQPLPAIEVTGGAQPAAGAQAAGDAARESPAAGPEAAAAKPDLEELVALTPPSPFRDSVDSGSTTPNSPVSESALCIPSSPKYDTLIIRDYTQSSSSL

Structure (SMILES) | pIC50 [1] | pIC50 [2] | Kp (in vivo) | AUC [3] | concentration at 6 h [4] | pKi [5] | pKi [6]
COc1ccc(-n2cnc3c(sc4nc(C)nc(N)c43)c2=O)cc1 | < 5.52 | 6.73 | – | – | – | – | –
Cc1nc(N)c2c(n1)sc1c(=O)n(-c3ccc(Cl)cc3)cnc12 | < 5.52 | 7.96 | – | – | – | – | –
COc1ccc(-n2cnc3c(sc4nccc(N(C)C)c43)c2=O)cc1 | < 5.52 | – | – | – | – | – | –
Cc1nc(N)c2c(n1)sc1c(=O)n(-c3ccc(F)cc3)cnc12 | < 5.52 | 7.17 | – | – | – | – | –
Cc1ccc(-n2cnc3c(sc4nc(-n5cccc5)nc(N)c43)c2=O)cc1 | < 5.52 | < 6.00 | – | – | – | – | –
Cc1ccc(-n2cnc3c(sc4[nH]c(=O)nc(N)c43)c2=O)cc1 | < 5.52 | < 6.00 | – | – | – | – | –
Cc1nc(N)c2c(n1)sc1c(=O)n(-c3ccccc3)cnc12 | < 5.52 | 7.80 | – | – | – | – | –

The remaining lines, values ahead:

pIC50 [1] | pIC50 [2] | Kp (in vivo) | AUC [3] | concentration at 6 h [4] | pKi [5] | pKi [6] | Structure (SMILES)
< 5.52 | 8.51 | – | – | – | – | – | Cc1ccc(-n2cnc3c(sc4nc(S)nc(N)c43)c2=O)cc1
< 5.52 | – | 0.9 | 965 ng·h/mL | 100 ng/g | – | – | Cc1ccc(-n2cnc3c(sc4nc(N)nc(N)c43)c2=O)cc1
< 5.52 | 6.49 | – | – | – | – | – | Cc1ccc(-n2cnc3c(sc4nc(C5CC5)nc(N)c43)c2=O)cc1
< 5.52 | < 6.00 | – | – | – | – | – | CNc1nc(N)c2c(n1)sc1c(=O)n(-c3ccc(C)cc3)cnc12
< 5.52 | 7.57 | 0.2 | 2110 ng·h/mL | 29 ng/g | 6.94 | 6.94 | Cc1ccc(-n2cnc3c(sc4nc(C)nc(N)c43)c2=O)cc1
< 5.52 | < 6.00 | – | – | – | – | – | Cc1ccc(-n2cnc3c(sc4nc(C(F)(F)F)nc(N)c43)c2=O)cc1
